These are literature values, as cited in PMC10026531 (Clinical Pharmacology in Drug Development, 2022).

Molecules are shown by their SMILES.

The conditions of the data set: in vivo, po.

With `O=c1ccc2ccc(OCCCCN3CCN(c4cccc(Cl)c4Cl)CC3)cc2[nH]1` [dehydro‐aripiprazole], the “share of the parent drug exposure in plasma” value is given as 40%.
